Data reported in patent publication US8278072B1, “Method for synthesis of sialylated products using reversible sialylation” (Health Research, Inc., priority 2007, dated 2012).
Marks after values point to notes of the source that are not given here.

Legend:
[1] = biological target: T1, ST3Gal-II (Rattus norvegicus, UniProt Q11205); assay: Serial transfer of sialic acid from donor via 5′-CMP to acceptors (scheme-II); type: biochemical; details: for Incorporation of [9-3H]NeuAc from donor [3], percent of the CPM incorporated into [5]: 150 μM donor [3]
T1 construct: purchased Calbiochem
T1 sequence (Q11205 1-350): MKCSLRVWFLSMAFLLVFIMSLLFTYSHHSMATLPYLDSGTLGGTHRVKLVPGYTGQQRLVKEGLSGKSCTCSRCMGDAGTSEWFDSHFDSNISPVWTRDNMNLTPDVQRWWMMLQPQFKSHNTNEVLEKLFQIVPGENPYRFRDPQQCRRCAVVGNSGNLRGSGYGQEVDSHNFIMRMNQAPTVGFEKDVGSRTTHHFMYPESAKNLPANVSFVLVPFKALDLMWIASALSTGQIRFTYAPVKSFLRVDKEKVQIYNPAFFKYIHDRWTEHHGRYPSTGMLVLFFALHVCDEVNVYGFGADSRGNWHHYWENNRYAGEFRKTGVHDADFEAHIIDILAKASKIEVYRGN
Description: FIG. 3. Serial transfer of sialic acid using scheme-II was followed at increasing concentrations of acceptor D-Fucβ1,3GalNAcα-O-Bn. The donor used was either: i) 0.15 mM [9-^3H]CMP-NeuAc; or, ii) 0.15 mM [9-^3H]NeuAcα2,3Galβ1,3(4-FGlcNAcβ1,6)GalNAcα-O-Bn [9-^3H [2]] in the presence of 2.0 mM 5′-CMP, or iii) [9-^3H]NeuAcα2,3Galβ1,3(6-O-SulfoGlcNAcβ1,6)GalNAcα-O—Al [[9-^3H] [4]] in the presence of 2.0 mM 5′-CMP. In runs where [9-^3H [2]] was donor since both and [2] bind C18 cartridges, control runs were performed in the absence of D-Fucβ1,3GalNAcα-O-Bn to estimate the amount of [9-^3H]CMP-NeuAc formed under the experimental conditions. 80-85% of the radioactivity was transferred to CMP-NeuAc in these runs. The amount of CMP-NeuAc remaining in runs with was then subtracted from CMP-NeuAc radioactivity in the control run to determine the amount of sialylated. To complement this run, studies were also performed with [[9-^3H] […] In these runs, the amount of sialylated was determined by measuring radioactivity retained in the C18-cartridge. a. Equilibrium constant was 5.55 when CMP-[9-^3H]NeuAc was donor. b. ˜10-fold lower acceptor concentration was required for similar extents of reaction when CMP-[9-^3H]NeuAc was donor, compared to core-2 based donors and [4].
We tested the possibility that CMP-NeuAc formed above may be available for transfer to other acceptors using ST3Gal-II (scheme-II, FIG. 3). For this, three radiolabeled donors were prepared using methods described above: two were based on the mucin Core-2 structure ([[9-^3H] [1]] and [9-^3H]NeuAcα2,3Galβ1,3(6-O-SulfoGlcNAcβ1,6)GalNAcα-O—Al [[9-^3H] [4]]) while the third was based on the Globo glycolipid ([9-^3H] [3]). The transfer of [9-^3H]NeuAc from these sialylated donors to various T-hapten (Galβ1,3GalNAcα) and mucin core2-based glycoside acceptors in the presence of 5′-CMP and ST3Gal-II was assessed (Table III). All three […] of ST3Gal-II ([1], [3] and [4]) allowed formation of CMP-[9-^3H]NeuAc, and a diverse array of products.
The transfer of [9-^3H]NeuAc from [[9-^3H][1]] to D-Fucβ1,3GalNAcα-O-Bn in the presence of 5′-CMP and ST3Gal-II increased linearly in the first two hours and it reached saturation at 4 hours (FIG. 12), and thus the data in Table III (4 hours time point) represent equilibrium conditions. […] Further, diverse sialylated products can be formed using the same synthetic sialylated donor.
In order to compare the efficiency of individual reactions of scheme II, independent runs were performed where either 0.15 mM [9-^3H]CMP-NeuAc, 0.15 mM [9-^3H] [2] or 0.15 mM [9-^3H] [4] was the donor, and [5] was the acceptor (FIG. 3). 2 mM 5′-CMP was added in runs with core-2 donors and [4], and thus reverse sialylation of these molecules was feasible. Keq for transfer of sialic acid from CMP-NeuAc to [5] was 5.55 (FIG. 3a). […] (˜6 mM) or [9-^3H[4]] (˜6 mM). Thus, while the two-step mechanism results in lower conversion than CMP-NeuAc alone, the transfer of NeuAc still takes place at an appreciable rate.

[2] = biological target: T1, ST3Gal-II; assay: Reverse sialylation: transfer of [9-3H]NeuAc from sialylated donor to nucleotide phosphates (WGA-agarose); type: biochemical; details: for Incorporation of [9-3H]NeuAc expressed as percent of the CPM incorporated into 5′-CMP: nucleotide phosphate 1 mM as acceptor, donor [1]
Description: FIG. 1. Nucleotide phosphates as acceptors of radioactivity from [9-^3H]NeuAcα2,3Galβ,13 (GlcNAcβ1,6)GalNAcα-O—Al (Al=Allyl) [[9-^3H] [1]] in the presence of ST3Gal-II (scheme-I). Reaction mixtures (RM) with the following composition were incubated at 37° C. for 21 hours in 100 mM NaCa Codylate buffer, pH6.0: i) RM containing 150 μM (0.4 μCi) [[9-^3H] [1]] (donor) along with 0.8 mU ST3Gal-II but no 5″-CMP; and, ii) RM containing [[9-^3H] [1]] and 1.0 mM 5′-CMP, along with ST3Gal-II. Products formed were fractionated on a WGA-agarose column. […] The feasibility of the reverse reaction is well established in literature. Schematic symbols: ♦:sialic acid, ●:Gal, □:GalNAc, ▪:GlcNAc.
All enzymatic sialylation reactions were typically carried out in 100 mM NaCa Codylate buffer pH6.0 in the presence of enzyme, synthetic acceptor (at 7.5 mM or as indicated in each experiment) and 0.2 μCi CMP-[9-^3H]NeuAc (NEN-Dupont, 29 mCi/μmol). The concentration of total CMP-NeuAc was adjusted in individual reactions by supplementing with additional cold CMP-NeuAc. Reaction volume was 20 μl. Products formed were separated using four different chromatography procedures (below). In all cases, the radioactive content of isolated products was determined by using 3a70 scintillation cocktail (Research Products International, Mount Prospect, Ill.), and a Beckman LS6500 scintillation counter.
a) Biogel P2 chromatography: A Biogel P2 column (Fine Mesh; 1.0×116.0 cm) was used with 0.1 M pyridine acetate (pH5.4) as the eluent at room temperature. […] Fractions of 1.0 ml were collected. The bound material was then eluted with 0.5M GlcNAc or 0.2M Gal in the same buffer. […] Calculation of equilibrium constant, Keq: Equilibrium constant was calculated for selected reversible bimolecular reactions that are denoted by:
Cloned and purified rat sialyltransferase α2,3(O)ST (ST3Gal-II) is used in many experiments presented in this manuscript. […] In order to determine if the sialylation reaction is reversible (FIG. 1), [9-^3H]NeuAcα2,3Galβ,13(GlcNAcβ1,6)GalNAcα-O—Al (Al=Allyl) [9-^3H[1]] was prepared using ST3Gal-II in the presence of CMP-[9-^3H]NeuAc and the trisaccharide acceptor Galβ1,3(GlcNAcβ1,6)GalNAcα-O—Al, and the radiolabeled product was isolated using Biogel P2 chromatography. […] Two different reaction mixtures were then prepared with: i) [9-^3H[1]] and ST3Gal-II but without 5″-CMP; and ii) [9-^3H[1]] and 5″-CMP along with ST3Gal-II.

[3] = acceptor 2.5 mM, 150 μM donor [1], 1 mM 5′-CMP, 4 hours
[4] = acceptor 2.5 mM, 1 mM 5′-CMP, 4 hours
[5] = acceptor 2.5 mM, 150 μM donor [4], 1 mM 5′-CMP, 4 hours

## COC[C@H]1O[C@H](OCc2ccccc2)[C@H](NC(C)=O)[C@@H](O[C@@H]2O[C@H](CO)[C@H](O)[C@H](O)[C@H]2O)[C@H]1O [[8], Galβ1,3(6-O-Me)GalNAcα-O-Bn]
[1]; [3]
  Incorporation of [9-3H]NeuAc from donor [1], percent of the CPM incorporated into [5]: 43.0%
[1]; [4]
  Incorporation of [9-3H]NeuAc from donor [3], percent of the CPM incorporated into [5]: 3.3%
[1]; [5]
  Incorporation of [9-3H]NeuAc from donor [4], percent of the CPM incorporated into [5]: 21.5%

## CC(=O)N[C@H]1[C@H](OCc2ccccc2)O[C@H](CO)[C@@H](O[C@@H]2O[C@H](CO)[C@H](O)[C@H](O)[C@H]2O)[C@@H]1O [[12], Galβ1,4GlcNAcβ-O-Bn]
[1]; [4]
  Incorporation of [9-3H]NeuAc from donor [3], percent of the CPM incorporated into [5]: 0.5%
[1]; [5]
  Incorporation of [9-3H]NeuAc from donor [4], percent of the CPM incorporated into [5]: 1.9%

## CC(=O)N[C@H]1[C@@H](OCc2ccccc2)O[C@H](CO)[C@H](O)[C@@H]1O[C@@H]1O[C@H](CO)[C@H](F)[C@H](O)[C@H]1O [[7], 4-FGalβ1,3GalNAcα-O-Bn]
[1]; [3]
  Incorporation of [9-3H]NeuAc from donor [1], percent of the CPM incorporated into [5]: 60.8%
[1]; [4]
  Incorporation of [9-3H]NeuAc from donor [3], percent of the CPM incorporated into [5]: 4.1%
[1]; [5]
  Incorporation of [9-3H]NeuAc from donor [4], percent of the CPM incorporated into [5]: 33.3%

## Nc1ncnc2c1ncn2[C@@H]1O[C@H](COP(=O)(O)O)[C@@H](O)[C@H]1O [5′-AMP]
[2]
  Incorporation of [9-3H]NeuAc expressed as percent of the CPM incorporated into 5′-CMP: 3.0%

## [9-^3H]NeuAcα2,3Galβ,13 (GlcNAcβ1,6)GalNAcα-O—Al [[1]]
[2]; 150 μM donor, 1.0 mM 5′-CMP
  transfer of radioactive [9-3H]NeuAc from donor to 5′-CMP: > 90%

## CO[C@@H]1[C@H](O)[C@@H](O)[C@H](O[C@H]2[C@@H](O)[C@@H](CO)O[C@H](OCc3ccccc3)[C@@H]2NC(C)=O)O[C@@H]1CO [[11], 4-O-MeGalβ1,3GalNAcα-O-Bn]
[1]; [3]
  Incorporation of [9-3H]NeuAc from donor [1], percent of the CPM incorporated into [5]: 8.9%
[1]; [4]
  Incorporation of [9-3H]NeuAc from donor [3], percent of the CPM incorporated into [5]: 0.2%
[1]; [5]
  Incorporation of [9-3H]NeuAc from donor [4], percent of the CPM incorporated into [5]: 2.7%

## CO[C@H]1[C@@H](O)[C@@H](CO)O[C@@H](O[C@H]2[C@H](O)[C@@H](NC(C)=O)[C@H](OC[C@H]3O[C@H](OCc4ccccc4)[C@H](NC(C)=O)[C@@H](O[C@@H]4O[C@H](CO)[C@H](O)[C@H](O)[C@H]4O)[C@H]3O)O[C@@H]2CO)[C@@H]1O [[9], 3-O-MeGalβ1,4GlcNAcβ1,6(Galβ1,3)GalNAcα-O-Bn]
[1]; [3]
  Incorporation of [9-3H]NeuAc from donor [1], percent of the CPM incorporated into [5]: 22.4%
[1]; [5]
  Incorporation of [9-3H]NeuAc from donor [4], percent of the CPM incorporated into [5]: 10.0%

## CO[C@@H]1[C@H](O)[C@@H](O)[C@H](O[C@H]2[C@@H](O)[C@@H](CO[C@@H]3O[C@H](CO)[C@@H](O[C@@H]4O[C@H](CO)[C@H](O)[C@H](O)[C@H]4O)[C@H](O)[C@H]3NC(C)=O)O[C@H](OCc3ccccc3)[C@@H]2NC(C)=O)O[C@@H]1CO [[13], Galβ1,4GlcNAcβ1,6(4-O-MeGalβ1,3)GalNAcα-O-Bn]
[1]; [3]
  Incorporation of [9-3H]NeuAc from donor [1], percent of the CPM incorporated into [5]: 1.3%
[1]; [5]
  Incorporation of [9-3H]NeuAc from donor [4], percent of the CPM incorporated into [5]: 0%

## Nc1ccn([C@@H]2O[C@H](CO)[C@@H](OP(=O)(O)O)[C@H]2O)c(=O)n1 [3′-CMP]
[2]
  Incorporation of [9-3H]NeuAc expressed as percent of the CPM incorporated into 5′-CMP: 2.4%

## Nc1ccn([C@@H]2O[C@H](COP(=O)(O)OP(=O)(O)OP(=O)(O)O)[C@@H](O)[C@H]2O)c(=O)n1 [5′-CTP, cytidine triphosphate]
[2]
  Incorporation of [9-3H]NeuAc expressed as percent of the CPM incorporated into 5′-CMP: 1.6%

## Nc1nc2c(ncn2[C@@H]2O[C@H](COP(=O)(O)O)[C@@H](O)[C@H]2O)c(=O)[nH]1 [5′-GMP]
[2]
  Incorporation of [9-3H]NeuAc expressed as percent of the CPM incorporated into 5′-CMP: 2.3%

## Cc1cn([C@H]2C[C@H](O)[C@@H](COP(=O)(O)O)O2)c(=O)[nH]c1=O [5′-TMP]
[2]
  Incorporation of [9-3H]NeuAc expressed as percent of the CPM incorporated into 5′-CMP: 1.1%

## D-Fucβ1,3GalNAcα-O-Bn [[5]]
[1]; [3]
  Incorporation of [9-3H]NeuAc from donor [1]: (34569 CPM)
  Incorporation of [9-3H]NeuAc from donor [1], percent of the CPM incorporated into [5]: 100.0%
[1]; acceptor 2.5 mM, 150 μM donor [3] of lower specific radioactivity, 1 mM 5′-CMP, 4 hours
  Incorporation of [9-3H]NeuAc from donor [3]: (6224 CPM)***
[1]; [4]
  Incorporation of [9-3H]NeuAc from donor [3], percent of the CPM incorporated into [5]: 100.0%
[1]; [5]
  Incorporation of [9-3H]NeuAc from donor [4]: (97675 CPM)
  Incorporation of [9-3H]NeuAc from donor [4], percent of the CPM incorporated into [5]: 100.0%
[1]; donor 0.15 mM CMP-[9-3H]NeuAc
  Keq for transfer of sialic acid from CMP-NeuAc to [5]: 5.55

## CC(=O)N[C@H]1[C@H](OC[C@H]2O[C@H](OCc3ccccc3)[C@H](NC(C)=O)[C@@H](O[C@@H]3O[C@H](C)[C@H](O)[C@H](O)[C@H]3O)[C@H]2O)O[C@H](CO)[C@@H](O)[C@@H]1O [[6], D-Fucβ1,3(GlcNAcβ1,6)GalNAcα-O-Bn]
[1]; [4]
  Incorporation of [9-3H]NeuAc from donor [3], percent of the CPM incorporated into [5]: 106.5%
[1]; [5]
  Incorporation of [9-3H]NeuAc from donor [4], percent of the CPM incorporated into [5]: 96.9%
